Experimental data as given in ChEMBL document CHEMBL3745645, “Synthesis, in vitro antitumor activity, dihydrofolate reductase inhibition, DNA intercalation and structure-activity relationship studies of 1,3,5-triazine analogues” (Bioorg Med Chem Lett, 2016).
The source made the active and inactive calls.

Tests used:
[1] = test system: OVCAR-5; test: Cytotoxicity against human OVCAR5 cells at 10 uM after 48 hrs by SRB assay; assay type: functional
[2] = test system: HCT-116; test: Cytotoxicity against human HCT116 cells at 10 uM after 48 hrs by SRB assay; assay type: functional
[3] = test system: OVCAR-8; test: Cytotoxicity against human OVCAR8 cells at 10 uM after 48 hrs by SRB assay; assay type: functional
[4] = test system: SW-620; test: Cytotoxicity against human SW620 cells at 10 uM after 48 hrs by SRB assay; assay type: functional
[5] = test system: SNB-75; test: Cytotoxicity against human SNB75 cells at 10 uM after 48 hrs by SRB assay; assay type: functional
[6] = test system: SK-OV-3; test: Cytotoxicity against human SKOV3 cells at 10 uM after 48 hrs by SRB assay; assay type: functional
[7] = test system: MOLT-4; test: Cytotoxicity against human MOLT4 cells at 10 uM after 48 hrs by SRB assay; assay type: functional
[8] = test system: LOX IMVI; test: Cytotoxicity against human LOXIMVI cells at 10 uM after 48 hrs by SRB assay; assay type: functional
[9] = test system: HOP-62; test: Cytotoxicity against human HOP62 cells at 10 uM after 48 hrs by SRB assay; assay type: functional
[10] = test system: OVCAR-3; test: Cytotoxicity against human OVCAR3 cells at 10 uM after 48 hrs by SRB assay; assay type: functional
[11] = test system: IGROV-1; test: Cytotoxicity against human IGROV1 cells at 10 uM after 48 hrs by SRB assay; assay type: functional
[12] = test system: SF-268; test: Cytotoxicity against human SF268 cells at 10 uM after 48 hrs by SRB assay; assay type: functional
[13] = test system: SF-539; test: Cytotoxicity against human SF539 cells at 10 uM after 48 hrs by SRB assay; assay type: functional
[14] = test system: CAKI-1; test: Cytotoxicity against human Caki1 cells at 10 uM after 48 hrs by SRB assay; assay type: functional
[15] = test system: NCI/ADR-RES; test: Cytotoxicity against human NCI-ADR-RES cells at 10 uM after 48 hrs by SRB assay; assay type: functional
[16] = test system: DU-145; test: Cytotoxicity against human DU145 cells at 10 uM after 48 hrs by SRB assay; assay type: functional
[17] = test system: RXF 393; test: Cytotoxicity against human RXF393 cells at 10 uM after 48 hrs by SRB assay; assay type: functional
[18] = test system: HOP-92; test: Cytotoxicity against human HOP92 cells at 10 uM after 48 hrs by SRB assay; assay type: functional
[19] = test system: UO-31; test: Cytotoxicity against human UO31 cells at 10 uM after 48 hrs by SRB assay; assay type: functional
[20] = test system: Hs-578T; test: Cytotoxicity against human Hs 578T cells at 10 uM after 48 hrs by SRB assay; assay type: functional
[21] = Cytotoxicity against human HL-60(TB) cells at 10 uM after 48 hrs by SRB assay; assay type: functional; settings: HL-60, 48 h, read-out: GI
[22] = test system: Calf thymus DNA; test: Binding affinity to calf thymus DNA at 25 uM by UV-vis spectrometric analysis; assay type: nucleic-acid assay; settings: Bos taurus

Cc1nc2cc(Nc3nc(Nc4ccc(F)cc4)nc(N4CCCC4)n3)ccc2n1Cc1ccccc1
active: growth inhibition (GI) [1] | growth inhibition (GI) [2] | growth inhibition (GI) [3] | growth inhibition (GI) [4] | growth inhibition (GI) [5] | growth inhibition (GI) [6] | growth inhibition (GI) [7] | growth inhibition (GI) [8] | growth inhibition (GI) [9] | growth inhibition (GI) [10] | growth inhibition (GI) [11] | growth inhibition (GI) [12] | growth inhibition (GI) [13] | growth inhibition (GI) [14] | growth inhibition (GI) [15] | growth inhibition (GI) [16] | growth inhibition (GI) [17] | growth inhibition (GI) [18] | growth inhibition (GI) [19]

Cc1nc2ccc(Nc3nc(Cl)nc(Nc4ccc(F)cc4)n3)cc2n1Cc1ccccc1
inactive: growth inhibition (GI) [1]

Cc1nc2cc(Nc3nc(Nc4ccc(F)cc4)nc(N4CCN(C)CC4)n3)ccc2n1Cc1ccccc1
active: growth inhibition (GI) [2] | growth inhibition (GI) [5] | growth inhibition (GI) [20] | growth inhibition (GI) [8] | growth inhibition (GI) [10] | growth inhibition (GI) [13] | growth inhibition (GI) [17] | growth inhibition (GI) [19]

Cc1nc2cc(Nc3nc(Nc4ccc(F)cc4)nc(-c4cccs4)n3)ccc2n1Cc1ccccc1
71.9%: inhibition of growth at 10 µM [21]

COc1ccc(-c2nc(Nc3ccc(F)cc3)nc(Nc3ccc4c(c3)nc(C)n4Cc3ccccc3)n2)cc1
active: growth inhibition (GI) [7]

Cc1nc2ccc(Nc3nc(NCCN4CCOCC4)nc(Nc4ccc(F)cc4)n3)cc2n1Cc1ccccc1
active: Activity [22]
